Source: patent publication US12195482B1 (Arcus Biosciences, Inc., priority 2022, dated 2025)

Experiments:
[1] = target: T1, recombinant human MER (Homo sapiens, UniProt Q12866); experiment: Biochemical potency, HTRF KinEASE-TK kinase assay; details: 1 nM MER, 700 μM ATP
T1 construct: purchased Invitrogen
T1 sequence (Q12866 21-999): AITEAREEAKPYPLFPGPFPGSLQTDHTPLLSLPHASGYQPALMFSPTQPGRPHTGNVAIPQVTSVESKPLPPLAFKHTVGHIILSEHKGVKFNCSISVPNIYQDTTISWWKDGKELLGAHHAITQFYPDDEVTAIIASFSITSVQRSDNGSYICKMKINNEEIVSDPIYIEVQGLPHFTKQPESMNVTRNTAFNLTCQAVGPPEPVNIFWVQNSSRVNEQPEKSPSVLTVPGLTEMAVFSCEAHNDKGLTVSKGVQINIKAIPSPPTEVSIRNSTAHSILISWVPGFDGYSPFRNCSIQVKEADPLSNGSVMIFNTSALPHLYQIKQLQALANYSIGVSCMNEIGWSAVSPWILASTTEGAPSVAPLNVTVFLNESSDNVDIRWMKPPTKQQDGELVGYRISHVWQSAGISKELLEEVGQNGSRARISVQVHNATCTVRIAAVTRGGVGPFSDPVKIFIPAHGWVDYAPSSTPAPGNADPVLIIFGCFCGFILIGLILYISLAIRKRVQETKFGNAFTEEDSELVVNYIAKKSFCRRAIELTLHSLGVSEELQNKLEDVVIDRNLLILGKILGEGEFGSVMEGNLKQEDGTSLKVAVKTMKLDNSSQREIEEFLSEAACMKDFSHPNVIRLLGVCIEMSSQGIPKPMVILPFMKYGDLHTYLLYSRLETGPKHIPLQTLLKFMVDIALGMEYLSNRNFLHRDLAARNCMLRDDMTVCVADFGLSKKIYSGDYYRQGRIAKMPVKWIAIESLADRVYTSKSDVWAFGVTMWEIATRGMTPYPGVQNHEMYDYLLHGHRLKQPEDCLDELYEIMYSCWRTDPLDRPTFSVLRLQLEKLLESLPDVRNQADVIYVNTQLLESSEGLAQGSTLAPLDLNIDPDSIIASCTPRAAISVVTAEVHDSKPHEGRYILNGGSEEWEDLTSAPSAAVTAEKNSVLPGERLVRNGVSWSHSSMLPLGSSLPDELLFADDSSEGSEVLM
Experimental: (§1) Measurement of Biochemical Compound Potency of Axl Inhibitors
(§2) Purified recombinant human AXL, TYRO3 and MER proteins were purchased from Invitrogen™. 10 nM AXL, 2 nM TYRO3 or MER were incubated with varying concentrations of compounds in 50 mM HEPES, pH 7.4, 10 mM MgCl2, 0.01% BSA, 1 mM DTT and 2% DMSO in a total volume of 20 μl in a 384-well microplate (Corning™ #3640) at RT for 1 h. The AXL, TYRO3 and MER enzymatic reaction was initiated by transferring 10 μl of enzyme and compound mixture into 10 μl of 1.6 μM TK Substrate-biotin (HTRF® KinEASE-TK kit, Cisbio) and 1400 μM ATP pre-incubated in 50 mM HEPES, pH 7.4, 10 mM MgCl2, 0.01% BSA, 1 mM DTT in a 384-well microplate (Corning™ #3640) at RT, giving the final reaction conditions: 5 nM AXL, 1 nM TYRO3 or MER, 800 nM TK Substrate-biotin and 700 μM ATP in 50 mM HEPES, pH 7.4, 10 mM MgCl2, 0.01% BSA, 1 mM DTT and 1% DMSO with varying concentrations of compounds. Following 2 h incubation at RT, the AXL, TYRO3 and MER enzymatic reaction was stopped by transfer of 10 μl of reaction into 10 μl of detection mix (400 nM Streptavidin-XL665, 200-fold dilution TK Antibody-Cryptate and detection buffer, HTRF® KinEASE-TK kit, Cisbio) in a white 384-well microplate (Perkin Elmer, OptiPlate 384). After 1 h incubation at RT, the plate was put into a plate reader (Evision) to read at 665/620 nm (acceptor/donor) for HTRF. The value of the DMSO blank (MIN inhibition=100% activity) was used as a negative control. The positive control was established by adding 5 μl of enzyme and DMSO mixture into 10 μl of detection mix followed by addition of 5 μl of TK Substrate-biotin and ATP mixture (MAX inhibition=0% activity). To calculate the percent activity, Equation 1 was used. Ratio665/620 is the value at a given compound concentration: […]

[2] = target: T2, recombinant human TYRO3 (Homo sapiens, UniProt Q06418); experiment: Biochemical potency, HTRF KinEASE-TK kinase assay; details: 1 nM TYRO3, 700 μM ATP
T2 construct: purchased Invitrogen
T2 sequence (Q06418 41-890): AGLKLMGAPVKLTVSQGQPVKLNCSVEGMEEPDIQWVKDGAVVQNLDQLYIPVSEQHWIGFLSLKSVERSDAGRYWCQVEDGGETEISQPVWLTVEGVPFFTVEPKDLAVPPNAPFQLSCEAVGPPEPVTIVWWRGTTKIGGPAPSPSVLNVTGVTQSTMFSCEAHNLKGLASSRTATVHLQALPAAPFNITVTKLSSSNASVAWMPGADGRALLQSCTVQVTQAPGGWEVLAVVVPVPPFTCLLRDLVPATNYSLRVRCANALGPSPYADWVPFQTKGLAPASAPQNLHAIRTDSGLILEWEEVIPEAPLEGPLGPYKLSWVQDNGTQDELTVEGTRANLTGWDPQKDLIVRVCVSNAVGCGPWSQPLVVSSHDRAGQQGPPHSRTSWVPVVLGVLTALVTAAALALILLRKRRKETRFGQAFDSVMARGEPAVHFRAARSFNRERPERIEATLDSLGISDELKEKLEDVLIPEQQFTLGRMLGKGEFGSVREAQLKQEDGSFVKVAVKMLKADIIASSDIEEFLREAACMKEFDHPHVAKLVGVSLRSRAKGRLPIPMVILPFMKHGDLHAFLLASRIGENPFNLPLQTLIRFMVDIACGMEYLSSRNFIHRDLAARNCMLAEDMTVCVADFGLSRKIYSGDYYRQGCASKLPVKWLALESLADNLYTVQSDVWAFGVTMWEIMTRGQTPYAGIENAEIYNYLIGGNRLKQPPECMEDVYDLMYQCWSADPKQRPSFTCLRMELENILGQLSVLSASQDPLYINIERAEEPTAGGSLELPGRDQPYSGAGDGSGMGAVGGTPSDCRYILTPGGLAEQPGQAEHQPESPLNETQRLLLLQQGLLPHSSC
Experimental: as §1, §2

Row | SMILES | IC50 [1] [nM] | IC50 [2] [nM]
1 | CC(C)(O)c1ccccc1-c1ccc(-c2c[nH]c3ncc(-c4ccc5c(c4)CC[C@@H](N4C6COCC4C6)CC5)cc23)cn1 [Example 114, 2-[2-(5-{5-[(7S)-7-{3-Oxa-6-azabicyclo[3.1.1]heptan-6-yl}-6,7,8,9-tetrahydro-5H-benzo[7]annulen-2-yl]-1H-pyrrolo[2,3-b]pyridin-3-yl}pyridin-2-yl)phenyl]propan-2-ol] | 100 to 1000 | 100 to 1000
2 | Cc1cccc(-c2ccc(-c3n[nH]c4ncc(-c5ccc6c(c5)CC[C@@H](N5C7COCC5C7)CC6)cc34)cc2)n1 [Example 116, 6-[(7S)-2-{3-[4-(6-Methylpyridin-2-yl)phenyl]-1H-pyrazolo[3,4-b]pyridin-5-yl}-6,7,8,9-tetrahydro-5H-benzo[7]annulen-7-yl]-3-oxa-6-azabicyclo[3.1.1]heptane] | 100 to 1000 | 100 to 1000
3 | Cc1ccc(-c2ccc(-c3n[nH]c4ncc(-c5ccc6c(c5)CC[C@@H](N5C7COCC5C7)CC6)cc34)cc2)nc1 [Example 115, 6-[(7S)-2-{3-[4-(5-Methylpyridin-2-yl)phenyl]-1H-pyrazolo[3,4-b]pyridin-5-yl}-6,7,8,9-tetrahydro-5H-benzo[7]annulen-7-yl]-3-oxa-6-azabicyclo[3.1.1]heptane] | 100 to 1000 | > 1000
4 | Cc1cccnc1-c1ccc(-c2n[nH]c3ncc(-c4ccc5c(c4)CC[C@@H](N[C@H]4CCCOC4)CC5)cc23)cc1 [Example 129, (3S)—N-[(7S)-2-{3-[4-(3-Methylpyridin-2-yl)phenyl]-1H-pyrazolo[3,4-b]pyridin-5-yl}-6,7,8,9-tetrahydro-5H-benzo[7]annulen-7-yl]oxan-3-amine] | < 100 | < 100
5 | C[C@@H]1CCCN1[C@@]1(C)CCc2ccc(-c3cnc4[nH]nc(-c5ccc(-c6ncnn6C)cc5)c4c3)cc2CC1 [Example 112, 1-Methyl-5-(4-{5-[(7S)-7-methyl-7-[(2R)-2-methylpyrrolidin-1-yl]-6,7,8,9-tetrahydro-5H-benzo[7]annulen-2-yl]-1H-pyrazolo[3,4-b]pyridin-3-yl}phenyl)-1H-1,2,4-triazole] | < 100 | < 100
6 | CC(C)(O)c1cccnc1-c1ccc(-c2c[nH]c3ncc(-c4ccc5c(c4)CC[C@@H](N4C6COCC4C6)CC5)cc23)cc1 [Example 95, 2-[2-(4-{5-[(7S)-7-{3-Oxa-6-azabicyclo[3.1.1]heptan-6-yl}-6,7,8,9-tetrahydro-5H-benzo[7]annulen-2-yl]-1H-pyrrolo[2,3-b]pyridin-3-yl}phenyl)pyridin-3-yl]propan-2-ol] | < 100 | < 100
7 | FC(F)(F)Oc1cccnc1-c1ccc(-c2c[nH]c3ncc(-c4ccc5c(c4)CC[C@@H](N4C6COCC4C6)CC5)cc23)cc1 [Example 103, 6-[(7S)-2-(3-{4-[3-(Trifluoromethoxy)pyridin-2-yl]phenyl}-1H-pyrrolo[2,3-b]pyridin-5-yl)-6,7,8,9-tetrahydro-5H-benzo[7]annulen-7-yl]-3-oxa-6-azabicyclo[3.1.1]heptane] | > 1000 | > 1000
8 | c1ccc(-n2cc(-c3n[nH]c4ncc(-c5ccc6c(c5)CC[C@@H](N5C7COCC5C7)CC6)cc34)cn2)nc1 [Example 168, 6-[(7S)-2-{3-[1-(Pyridin-2-yl)-1H-pyrazol-4-yl]-1H-pyrazolo[3,4-b]pyridin-5-yl}-6,7,8,9-tetrahydro-5H-benzo[7]annulen-7-yl]-3-oxa-6-azabicyclo[3.1.1]heptane] | 100 to 1000 | 100 to 1000
9 | Cc1cc(F)cnc1-c1ccc(-c2c[nH]c3ncc(-c4ccc5c(c4)CC[C@@H](N4C6COCC4C6)CC5)cc23)cc1 [Example 29, 6-[(7S)-3-[3-[4-(5-Fluoro-3-methylpyridin-2-yl)phenyl]-1H-pyrrolo[2,3-b]pyridin-5-yl]-6,7,8,9-tetrahydro-5H-benzo[7]annulen-7-yl]-3-oxa-6-azabicyclo[3.1.1]heptane] | 100 to 1000 | 100 to 1000
10 | Cc1cccnc1-c1ccc(-c2n[nH]c3ncc(-c4ccc5c(c4)CC[C@@](C)(N4CCC[C@H]4C)CC5)cc23)cc1 [Example 163, 3-Methyl-2-(4-{5-[(7S)-7-methyl-7-[(2R)-2-methylpyrrolidin-1-yl]-6,7,8,9-tetrahydro-5H-benzo[7]annulen-2-yl]-2H-pyrazolo[3,4-b]pyridin-3-yl}phenyl)pyridine] | < 100 | < 100
11 | CS(=O)(=O)c1cccnc1-c1ccc(-c2n[nH]c3ncc(-c4ccc5c(c4)CC[C@@H](N4C6COCC4C6)CC5)cc23)cc1 [Example 101, 6-[(7S)-2-{3-[4-(3-Methanesulfonylpyridin-2-yl)phenyl]-1H-pyrazolo[3,4-b]pyridin-5-yl}-6,7,8,9-tetrahydro-5H-benzo[7]annulen-7-yl]-3-oxa-6-azabicyclo[3.1.1]heptane] | 100 to 1000 | < 100
12 | Cn1cnnc1-c1ccc(-c2n[nH]c3ncc(-c4ccc5c(c4)CC[C@@H](N4C6COCC4C6)CC5)cc23)cc1 [Example 169, 6-[(7S)-2-{3-[4-(4-Methyl-4H-1,2,4-triazol-3-yl)phenyl]-1H-pyrazolo[3,4-b]pyridin-5-yl}-6,7,8,9-tetrahydro-5H-benzo[7]annulen-7-yl]-3-oxa-6-azabicyclo[3.1.1]heptane] | < 100 | < 100
13 | Cc1cccnc1-c1ccc(-c2n[nH]c3ncc(-c4ccc5c(c4)CC[C@@](C)(N4CCC[C@H]4C)CC5)cc23)nc1 [Example 105, 3-Methyl-6′-{5-[(7S)-7-methyl-7-[(2R)-2-methylpyrrolidin-1-yl]-6,7,8,9-tetrahydro-5H-benzo[7]annulen-2-yl]-1H-pyrazolo[3,4-b]pyridin-3-yl}-2,3′-bipyridine] | < 100 | < 100
